Results published in US11661426B2, “Imidazole-containing inhibitors of ALK2 kinase” (BioCryst Pharmaceuticals, Inc., priority 2017, dated 2023).
pIC50: −log10 of the molar value.

target: ALK2 (Homo sapiens (Human), UniProt Q04771); test: ALK2 inhibition, LanthaScreen Eu Kinase Binding Assay (ThermoFisher Scientific / Life Technologies); details: read-out: Measured Ki (IC50) Value for Compounds: IC50
Protocol: Biochemical assays to measure the inhibitory effects of the compounds were performed by ThermoFisher Scientific (Life Technologies). ALK2 inhibition was tested using LanthaScreen™ Eu Kinase Binding Assay screening protocol.

Chain of ALK2 (Q04771 21-509): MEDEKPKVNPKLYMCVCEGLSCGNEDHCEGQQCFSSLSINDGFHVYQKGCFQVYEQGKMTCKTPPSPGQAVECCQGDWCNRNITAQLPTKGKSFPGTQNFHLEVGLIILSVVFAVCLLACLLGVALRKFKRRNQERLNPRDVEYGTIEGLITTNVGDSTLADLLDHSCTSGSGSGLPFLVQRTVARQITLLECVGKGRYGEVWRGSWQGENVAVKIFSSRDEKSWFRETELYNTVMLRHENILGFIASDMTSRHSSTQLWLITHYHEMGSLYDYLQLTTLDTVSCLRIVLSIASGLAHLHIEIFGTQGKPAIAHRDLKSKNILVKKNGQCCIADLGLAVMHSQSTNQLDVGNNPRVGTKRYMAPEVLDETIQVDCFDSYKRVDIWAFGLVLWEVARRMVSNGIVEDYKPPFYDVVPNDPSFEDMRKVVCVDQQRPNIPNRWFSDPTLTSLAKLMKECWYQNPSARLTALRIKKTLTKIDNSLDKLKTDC

Compound	pIC50
COc1cc(-n2cnc(Nc3nc(N4CCCC4)nc4c3ccn4S(=O)(=O)c3ccc(C)cc3)c2)cc(OC)c1OC [Compound 163a, 2-(pyrrolidin-1-yl)-7-tosyl-N-(1-(3,4,5-trimethoxyphenyl)-1H-imidazol-4-yl)-7H-pyrrolo[2,3-d]pyrimidin-4-amine]	6.00 to 7.00
COc1cc(-n2cnc(Nc3nc(N4CCC[C@H]4CO)nn4cccc34)c2)cc(C#N)c1OC [Compound 167f, (S)-5-(4-((2-(2-(hydroxymethyl)pyrrolidin-1-yl)pyrrolo[2,1-f][1,2,4]triazin-4-yl)amino)-1H-imidazol-1-yl)-2,3-dimethoxybenzonitrile]	< 6.00
COc1cc(-n2cnc(Nc3nc(N4CCCC4)c4cccn4n3)c2)cc(OC)c1OC [Compound 168b, 4-(pyrrolidin-1-yl)-N-(1-(3,4,5-trimethoxyphenyl)-1H-imidazol-4-yl)pyrrolo[2,1-f][1,2,4]triazin-2-amine]	6.00 to 7.00
COc1cc(-n2cnc(Nc3nc(N4CCC[C@H]4C(N)=O)nc4ncccc34)c2)cc(OC)c1OC [Compound 170a, (S)-1-(4-((1-(3,4,5-trimethoxyphenyl)-1H-imidazol-4-yl)amino)pyrido[2,3-d]pyrimidin-2-yl)pyrrolidine-2-carboxamide]	> 7.00
OC[C@@H]1CCCN1c1nc(Nc2cn(-c3ccccc3)cn2)nn2cccc12 [Compound 172a, (S)-(1-(2-((1-phenyl-1H-imidazol-4-yl)amino)pyrrolo[2,1-f][1,2,4]triazin-4-yl)pyrrolidin-2-yl)methanol]	6.00 to 7.00
COc1cc(-n2cnc(Nc3nc(N4CCC[C@H]4C(N)=O)c4ccn(S(=O)(=O)c5ccc(C)cc5)c4n3)c2)cc(OC)c1OC [Compound 173b, (S)-1-(7-tosyl-2-((1-(3,4,5-trimethoxyphenyl)-1H-imidazol-4-yl)amino)-7H-pyrrolo[2,3-d]pyrimidin-4-yl)pyrrolidine-2-carboxamide]	< 6.00
COc1cc(-n2cnc(Nc3nc(N4CCC[C@H]4C(N)=O)c4cc[nH]c4n3)c2)cc(OC)c1OC [Compound 173c, (S)-1-(2-((1-(3,4,5-trimethoxyphenyl)-1H-imidazol-4-yl)amino)-7H-pyrrolo[2,3-d]pyrimidin-4-yl)pyrrolidine-2-carboxamide]	> 7.00
COc1cc(-n2cnc(Nc3nc(N4CCC[C@H]4CO)c4ncccc4n3)c2)cc(OC)c1OC [Compound 175b, (S)-(1-(2-((1-(3,4,5-trimethoxyphenyl)-1H-imidazol-4-yl)amino)pyrido[3,2-d]pyrimidin-4-yl)pyrrolidin-2-yl)methanol]	> 7.00
COc1cc(-n2cnc(Nc3nc(N4CCC[C@@H]4C(N)=O)c4cccn4n3)c2)cc(OC)c1OC [Compound 176b, (R)-1-(2-((1-(3,4,5-trimethoxyphenyl)-1H-imidazol-4-yl)amino)pyrrolo[2,1-f][1,2,4]triazin-4-yl)pyrrolidine-2-carboxamide]	6.00 to 7.00
COc1cc(-n2cnc(Nc3nc(N4CCC[C@H]4CO)c4c(ccn4S(=O)(=O)c4ccc(C)cc4)n3)c2)cc(OC)c1OC [Compound 180b, (S)-(1-(5-tosyl-2-((1-(3,4,5-trimethoxyphenyl)-1H-imidazol-4-yl)amino)-5H-pyrrolo[3,2-d]pyrimidin-4-yl)pyrrolidin-2-yl)methanol]	> 7.00
COc1cc(-n2cnc(Nc3nc4c(c(N5CCC[C@H]5CO)n3)CN(C(=O)OC(C)(C)C)CC4)c2)cc(OC)c1OC [Compound 181c, (S)-tert-butyl 4-(2-(hydroxymethyl)pyrrolidin-1-yl)-2-((1-(3,4,5-trimethoxyphenyl)-1H-imidazol-4-yl)amino)-7,8-dihydropyrido[4,3-d]pyrimidine-6(5H)-carboxylate]	> 7.00
COc1cc(-n2cnc(Nc3nc4c(c(N5CCC[C@H]5CO)n3)CNCC4)c2)cc(OC)c1OC [Compound 181d, (S)-(1-(2-((1-(3,4,5-trimethoxyphenyl)-1H-imidazol-4-yl)amino)-5,6,7,8-tetrahydropyrido[4,3-d]pyrimidin-4-yl)pyrrolidin-2-yl)methanol]	> 7.00
COc1cc(-n2cnc(Nc3nc4c(c(N5CCC[C@H]5CO)n3)CCN(C(=O)OC(C)(C)C)C4)c2)cc(OC)c1OC [Compound 182c, (S)-tert-butyl 4-(2-(hydroxymethyl)pyrrolidin-1-yl)-2-((1-(3,4,5-trimethoxyphenyl)-1H-imidazol-4-yl)amino)-5,6-dihydropyrido[3,4-d]pyrimidine-7(8H)-carboxylate]	> 7.00
COc1cc(-n2cnc(Nc3nc(N4CCC[C@H]4CO)nc4c3CCN(C(=O)OC(C)(C)C)C4)c2)cc(OC)c1OC [Compound 183b, (S)-tert-butyl 2-(2-(hydroxymethyl)pyrrolidin-1-yl)-4-((1-(3,4,5-trimethoxyphenyl)-1H-imidazol-4-yl)amino)-5,6-dihydropyrido[3,4-d]pyrimidine-7(8H)-carboxylate]	> 7.00
COc1cc(-n2cnc(Nc3nc(N4CCC[C@H]4CO)nc4c3CCNC4)c2)cc(OC)c1OC [Compound 183c, (S)-(1-(4-((1-(3,4,5-trimethoxyphenyl)-1H-imidazol-4-yl)amino)-5,6,7,8-tetrahydropyrido[3,4-d]pyrimidin-2-yl)pyrrolidin-2-yl)methanol]	> 7.00
COc1cc(-n2cnc(Nc3nc(N4CCCC4)nc4c3CCN(C(=O)OC(C)(C)C)C4)c2)cc(OC)c1OC [Compound 184a, tert-butyl 2-(pyrrolidin-1-yl)-4-((1-(3,4,5-trimethoxyphenyl)-1H-imidazol-4-yl)amino)-5,6-dihydropyrido[3,4-d]pyrimidine-7(8H)-carboxylate]	> 7.00
COc1cc(-n2cnc(Nc3nc(N4CCCC4)nc4c3CCNC4)c2)cc(OC)c1OC [Compound 184b, 2-(pyrrolidin-1-yl)-N-(1-(3,4,5-trimethoxyphenyl)-1H-imidazol-4-yl)-5,6,7,8-tetrahydropyrido[3,4-d]pyrimidin-4-amine]	> 7.00
COc1cc(-n2cnc(Nc3nc(N4CCC[C@H]4C(N)=O)nc4c3CCNC4)c2)cc(OC)c1OC [Compound 185b, (S)-1-(4-((1-(3,4,5-trimethoxyphenyl)-1H-imidazol-4-yl)amino)-5,6,7,8-tetrahydropyrido[3,4-d]pyrimidin-2-yl)pyrrolidine-2-carboxamide]	> 7.00
COc1cc(-n2cnc(Nc3nc(N4CCCC4)nc4ncccc34)c2)cc(OC)c1OC [Compound 186a, 2-(pyrrolidin-1-yl)-N-(1-(3,4,5-trimethoxyphenyl)-1H-imidazol-4-yl)pyrido[2,3-d]pyrimidin-4-amine]	> 7.00

More lines, now with the values ahead:

pIC50	Compound
> 7.00	COc1cc(-n2cnc(Nc3nc(N4CCC[C@H]4CO)nc4scnc34)c2)cc(OC)c1OC [Compound 164a, (S)-(1-(7-((1-(3,4,5-trimethoxyphenyl)-1H-imidazol-4-yl)amino)thiazolo[5,4-d]pyrimidin-5-yl)pyrrolidin-2-yl)methanol]
> 7.00	COc1cc(-n2cnc(Nc3nc4c(c(N5CCC[C@H]5CO)n3)CCN(Cc3ccccc3)C4)c2)cc(OC)c1OC [Compound 165b, (S)-(1-(7-benzyl-2-((1-(3,4,5-trimethoxyphenyl)-1H-imidazol-4-yl)amino)-5,6,7,8-tetrahydropyrido[3,4-d]pyrimidin-4-yl)pyrrolidin-2-yl)methanol]
> 7.00	COc1cc(-n2cnc(Nc3nc4c(c(N5CCC[C@H]5C(N)=O)n3)CCN(Cc3ccccc3)C4)c2)cc(OC)c1OC [Compound 166b, (S)-1-(7-benzyl-2-((1-(3,4,5-trimethoxyphenyl)-1H-imidazol-4-yl)amino)-5,6,7,8-tetrahydropyrido[3,4-d]pyrimidin-4-yl)pyrrolidine-2-carboxamide]
> 7.00	COc1cc(-n2cnc(Nc3nc(N4CCC[C@H]4CO)nc4ncccc34)c2)cc(OC)c1OC [Compound 169c, (S)-(1-(4-((1-(3,4,5-trimethoxyphenyl)-1H-imidazol-4-yl)amino)pyrido[2,3-d]pyrimidin-2-yl)pyrrolidin-2-yl)methanol]
> 7.00	COc1cc(-n2cnc(Nc3nc(N4CCC[C@H]4C(N)=O)nc4cc(OC(C)C)ccc34)c2)cc(OC)c1OC [Compound 171a, (S)-1-(7-isopropoxy-4-((1-(3,4,5-trimethoxyphenyl)-1H-imidazol-4-yl)amino)quinazolin-2-yl)pyrrolidine-2-carboxamide]
> 7.00	COc1cc(-n2cnc(Nc3nc(N4CCC[C@H]4CO)c4cccnc4n3)c2)cc(OC)c1OC [Compound 174b, (S)-(1-(2-((1-(3,4,5-trimethoxyphenyl)-1H-imidazol-4-yl)amino)pyrido[2,3-d]pyrimidin-4-yl)pyrrolidin-2-yl)methanol]
> 7.00	COc1cc(-n2cnc(Nc3nc4c(c(N5CCC[C@H]5CO)n3)CN(Cc3ccccc3)CC4)c2)cc(OC)c1OC [Compound 177b, (S)-(1-(6-benzyl-2-((1-(3,4,5-trimethoxyphenyl)-1H-imidazol-4-yl)amino)-5,6,7,8-tetrahydropyrido[4,3-d]pyrimidin-4-yl)pyrrolidin-2-yl)methanol]
6.00 to 7.00	COc1cc(-n2cnc(Nc3ccc4ccccc4c3)c2)cc(OC)c1OC [Compound 178b, N-(naphthalen-2-yl)-1-(3,4,5-trimethoxyphenyl)-1H-imidazol-4-amine]
> 7.00	COc1cc(-n2cnc(Nc3ccc4ccccc4n3)c2)cc(OC)c1OC [Compound 179b, N-(1-(3,4,5-trimethoxyphenyl)-1H-imidazol-4-yl)quinolin-2-amine]
> 7.00	COc1cc(-n2cnc(Nc3nc4c(c(N5CCC[C@H]5CO)n3)CCNC4)c2)cc(OC)c1OC [Compound 182d, (S)-(1-(2-((1-(3,4,5-trimethoxyphenyl)-1H-imidazol-4-yl)amino)-5,6,7,8-tetrahydropyrido[3,4-d]pyrimidin-4-yl)pyrrolidin-2-yl)methanol]
> 7.00	COc1cc(-n2cnc(Nc3nc(N4CCC[C@H]4C(N)=O)nc4c3CCN(C(=O)OC(C)(C)C)C4)c2)cc(OC)c1OC [Compound 185a, (S)-tert-butyl 2-(2-carbamoylpyrrolidin-1-yl)-4-((1-(3,4,5-trimethoxyphenyl)-1H-imidazol-4-yl)amino)-5,6-dihydropyrido[3,4-d]pyrimidine-7(8H)-carboxylate]
